Reference: PMC3679022, “A Cancer Specific Cell-Penetrating Peptide, BR2, for the Efficient Delivery of an scFv into Cancer Cells” (PLoS ONE, 2013)

How the values were obtained:
[1] = tested on: cancer cells (HeLa, HCT116 and B16/F10); assay type: cell-based, human, mouse; conditions: flow cytometry
Procedure: (§1) To evaluate the internalization of FITC-labeled peptides, HeLa cells were seeded onto 12-well plates at a density of 2×10^5 cells per well and incubated for 24 h. FITC-labeled peptides, at various concentrations ranging from […], were then incubated with the cells for 30 min at 37°C. To compare the cellular uptake of peptides, cancer and normal cells were treated with FITC-labeled peptides (each, 10 µM) and incubated for 30 min at 37°C. Following the incubation, cells were washed three times with ice-cold PBS to remove excess extracellular complexes. Next, the cells were treated with trypsin (1 mg/ml) for 10 min to remove any remaining peptides bound to the cell surface. After trypsinization, the cells were collected by centrifugation (1,000×g for 5 min), resuspended with 500 µl ice-cold 2% FBS/PBS containing propidium iodide (PI), and then immediately analyzed (10,000 events/sample) by fluorescence activated cell sorting (FACS).
For all of these experimental conditions, flow cytometry analyses were performed with live cells using a Becton Dickinson FACSCalibur flow cytometer (BD Biosciences, San Diego, CA). In each case, the fluorescence of 10,000 viable cells was acquired. Viable cells were gated based on a sideward and forward scatter. […] The statistical significance was evaluated by Student’s t-test at a 95% confidence interval. […]

[2] = tested on: normal cell lines (HaCat, BJ and NIH 3T3); assay: In vitro cytotoxicity assay (LDH leakage), normal cell lines; conditions: 24 h, 37°C
Procedure: (§4) The cytotoxicity of peptides to mammalian cells was investigated by assessing the release of lactate dehydrogenase (LDH) from cancer and normal cells. The amount of LDH released from damaged cells into the supernatant was measured using the Cytotoxicity Detection Kit (Roche Applied Science, Germany) according to the manufacturer’s instructions. In brief, cells were plated onto 96-well microplates (1×10^4 cells per well) in complete DMEM supplemented with 10% FBS and incubated overnight at 37°C to allow for attachment and spreading of cells. After 24 h of incubation, cells were treated with various concentrations of peptides (0–100 µM) and incubated for another 24 h at 37°C. The extracellular medium from each well was transferred to a new microplate and incubated for 10 min with 100 µl/well reaction mixture, followed by a stop solution. Absorbance was measured at 490 nm by using an ELISA plate reader. LDH release from cells lysed with 0.2% Triton X-100 in PBS was defined as 100% leakage and LDH release from untreated cells as 0% leakage.
(§5) (B,C) In vitro cytotoxicity of peptides. (B) Membrane disturbance was measured by lactate dehydrogenase (LDH) leakage from the indicated cell lines 24 h after peptide treatment. LDH leakage from cells seeded in a 96-well plate at 10,000 cells/well was measured after exposure to 1, 2, 5, 10, 20, 50 or 100 µM peptides for 24 h. […]

[3] = tested on: normal cells (HaCat, BJ and NIH 3T3); assay: Confocal laser scanning microscopy of FITC-labeled peptide uptake, normal cells; assay type: cell-based, human, mouse; conditions: FITC-labeled peptide 5 µM, 30 min, 37°C, live unfixed cells
Procedure: (§2) To investigate the cell-penetrating ability and the intracellular distribution of the internalized peptides, live confocal microscopy was performed on three cancer lines (HeLa, HCT116 and B16/F10) and three normal cell lines (HaCat, BJ and NIH 3T3). Briefly, cells (2×10^5) were plated on a glass coverslip placed in a 6-well plate, grown overnight, and then incubated with FITC-labeled peptides (5 µM for each cell line) for 30 min. The cells were then rinsed three times with phosphate buffered saline (PBS, pH 7.4), and mounted on microscope slides with fluorescence mounting solution (Dako Corp, Carpinteria, CA). Colocalization of BR2 with lysosomes was observed by using LysoTracker Red DND-99 (Molecular Probe, Eugene, OR). To avoid the effects of fixation artifacts, involving both methanol and paraformaldehyde, cells were not fixed, [27]. The distribution of FITC-labeled peptides was analyzed using a confocal scanning laser Zeiss LSM 510 microscope (Jena, Germany) equipped with a 40× and 20× objective. Fluorophores were excited with an argon laser (488 nm) for FITC and a HeNe laser (543 nm) for LysoTracker Red.
(§3) (B,C) In vitro cytotoxicity of peptides.

HeLa cells = assay type: cell-based, human; conditions: FACS
Procedure: as §1
To understand further the cell-penetrating mechanism of peptides, the effects of temperature and metabolic inhibitors were examined. To elucidate the temperature dependency, HeLa cells were incubated at 4°C for 30 min prior to the addition of the peptides. Next, cells were treated with FITC-labeled peptides (each, 5 µM) at 4°C for 30 min. For the energy-depletion study, HeLa cells were preincubated with sodium azide (NaN3, 10 mM) at 37°C for 1 h and then incubated with FITC-labeled peptides (each, 5 µM) at 37°C for 30 min.
To study the role of endocytosis in peptide uptake, cells were pretreated with several endocytosis inhibitors at 37°C for 1 h: (i) amiloride (5 mM), which is known to block macropinocytosis by inhibiting a sodium channel; (ii) nocodazole (100 ng/ml), which inhibits the clathrin-mediated pathway; and (iii) methyl-ß-cyclodextrin (MßCD, 5 mM), which inhibits lipid raft-mediated processes by depleting cholesterol from the plasma membrane. All inhibitors were purchased from Sigma (St. Louis, MO).
To examine the effects of negatively charged components on the cell surface for peptide internalization, HeLa cells were pretreated with gangliosides (monosialoganglioside GM3 from canine blood), heparin sulfate, or sialic acid (Neu5Ac, all from Sigma) (20 µg/ml) for 30 min. For the inhibition of ganglioside biosynthesis, cells were pretreated with D-threo-1-phenyl-2-hexadecanoyl amino-3-morpholino-1-propanol (PPMP, 5 µM) for 48 h.
For all of these experimental conditions, flow cytometry analyses were performed with live cells using a Becton Dickinson FACSCalibur flow cytometer (BD Biosciences, San Diego, CA). In each case, the fluorescence of 10,000 viable cells was acquired. Viable cells were gated based on a sideward and forward scatter. For data analysis, WinMDI software (Joe Trotter, Scripps Research Institute, La Jolla, CA) was used. The statistical significance was evaluated by Student’s t-test at a 95% confidence interval.
Figure 2 BR2 specifically penetrates cancer cell membranes in a concentration-dependent manner. (A) Analysis of the cell-penetrating efficiency of each peptide in different cell types by flow cytometry. FITC-labeled Tat, BR1 and BR2 peptides (10 µM) were added to different cell types: HeLa, HCT116 and B16/F10 cancer cells and HaCat, BJ and NIH 3T3 normal cells. After 30 min of incubation at 37°C, the FITC-positive cells were counted by flow cytometry. Values represent the percentage of fluorescence-positive cells in the total cell population. (B) Quantitative assessment of cell penetration of each peptide by flow cytometry. HeLa cells were incubated with FITC-labeled peptides at concentrations of 1, 2, 5, or 10 µM for 30 min at 37°C. Afterwards the cells were washed with cold PBS and harvested and cellular fluorescence was analyzed by flow cytometry. […] Prior to analysis, extracellular fluorescence of surface bound peptides was removed by a trypsin treatment (1 mg/ml for 10 min). […]

[4] = tested on: cancer cell lines (HeLa, HCT116 and B16/F10); assay: In vitro cytotoxicity assay (LDH leakage), cancer cell lines; conditions: 100 µM peptide, 24 h, 37°C; 0.2% Triton X-100 = 100%; n = 3
Procedure: as §4, §5

[5] = tested on: cancer cells (HeLa, HCT116 and B16/F10); assay: Confocal laser scanning microscopy of FITC-labeled peptide uptake, cancer cells; assay type: cell-based, human, mouse; conditions: FITC-labeled peptide 5 µM, 30 min, 37°C, live unfixed cells
Procedure: as §2, §3

## RAGLQFPVGRLLRRLLR [BR2]
[1]
  transduction efficiency into cancer cells versus normal cells: about 4 fold
[2]; 100 µM peptide, 0.2% Triton X-100 = 100%, n = 3
  LDH leakage: ~17%
[2]; peptide concentrations below 70 µM
  LDH leakage: not detected
[3]
  cellular uptake (confocal microscopy): very poorly internalized
HeLa cells; FITC-labeled peptide 5 µM, 30 min at 4°C after preincubation at 4°C
  decrease of cellular uptake at 4°C compared to 37°C: 88.5%
HeLa cells; MßCD 5 mM pretreatment 1 h 37°C, peptide 30 min 37°C, mean of three experiments
  inhibition of penetration by methyl-ß-cyclodextrin (MßCD): 44.6%
HeLa cells; NaN3 10 mM preincubation 1 h 37°C, then FITC-labeled peptide 5 µM 30 min 37°C
  reduction of uptake by ATP depletion (sodium azide): 67.7%
HeLa cells; PPMP 5 µM pretreatment 48 h
  effect of ganglioside synthesis inhibitor PPMP on peptide uptake: significantly reduced
HeLa cells; amiloride 5 mM pretreatment 1 h 37°C, peptide 30 min 37°C, mean of three experiments
  inhibition of cellular uptake by amiloride: 36.5%
HeLa cells; gangliosides (GM3) 20 µg/ml, 30 min
  effect of exogenous gangliosides on peptide penetration: partially inhibited
HeLa cells; heparin 20 µg/ml, 30 min
  effect of exogenous heparin on peptide uptake: almost no effect
HeLa cells; nocodazole 100 ng/ml pretreatment 1 h 37°C, peptide 30 min 37°C
  effect of nocodazole on peptide transduction: negligible effect
HeLa cells; sialic acid (Neu5Ac) 20 µg/ml, 30 min
  effect of exogenous sialic acids on peptide penetration: partially inhibited
[4]
  LDH leakage: 40–60%
[5]
  cellular uptake (confocal microscopy): readily internalized
